Our source for the IC50 values is US11111242B2, “Pyrrolo[2,3-d]pyrimidinyl, pyrrolo[2,3-b]pyrazinyl and pyrrolo[2,3-d]pyridinyl acrylamides” (Pfizer Inc., priority 2013, dated 2021).

In the first assay the test system is IL-15 induced P-STAT5 in human PBMC (total lymphocytes). Put plainly: PBMC IL-15 Induced P-STAT5. The assay is classed as cell-based. Particulars: Homo sapiens, PBMC, IL-15 stimulated, read-out: PBMC IL15-pSTAT5 IC50. The method, then:
PBMC IL-15 Induced P-STAT5
Frozen human PBMC (200-250 million cells/vial) was thawed at 37° C. The cells were transferred to 10 mL warm medium in a 50-mL conical tube, and centrifuged at 1,200 RPM at room temperature for 5 min. The supernatant was aspirated. […] After adding 47 ml D-PBS (37° C.) to PBMC/FBS suspension, centrifuging at 1,200 RPM at room temperature for 5 min, and aspirating the supernatant, the cells were resuspended in 20 mL warm RPMI medium. Ninety μL of cell suspension were pipetted per well in a 96-well, deep-well, V-bottom plate, and the plate was incubated at 37° C. for 30 min. […] After adding 0.8 mL staining buffer per well, the plates were centrifuged at 1,200 RPM (Beckman GS-6R or Sorvall Legend) at room temperature for 5 min, and again the supernatant was aspirated using a 8-channel or 12-channel manifold. The plate was vortexed, and 0.35 mL 90% methanol/10% H2O (−20° C.) was added per well, and the plate incubated on ice for 20 min. After again adding 0.8 mL staining buffer per well, the plates were centrifuged at 1,200 RPM (Beckman GS-6R or Sorvall Legend) at room temperature for 5 min, and again the supernatant was aspirated using a 8-channel or 12-channel manifold, and then 0.8 mL Staining buffer was added per well. After once again adding 0.8 mL staining buffer per well, the plates were centrifuged at 1,200 RPM (Beckman GS-6R or Sorvall Legend) at room temperature for 5 min, and again the supernatant was aspirated using a 8-channel or 12-channel manifold. […] Samples of 250 μL/well were transferred to a 96-well U-bottom plate, and the FACS analysis was performed gating on total lymphocytes. Samples were analyzed using a BD Calibur™ or BD FACSCanto™ flow cytometer equipped with the BD High Throughput Sampler.
In the case of `C=CC(=O)N1CC[C@@H]2CN(c3cnc4[nH]cc(C(=O)NC(C)C)c4n3)C[C@@H]21` [Example 170, 2-[(3aR,6aR)-1-acryloylhexahydropyrrolo[3,4-b]pyrrol-5(1H)-yl]-N-(propan-2-yl)-5H-pyrrolo[2,3-b]pyrazine-7-carboxamide], the IC50 (commonly the concentration needed to halve the response being measured) stood at 1.37 µM.

In the case of `C=C(C(=O)N1CC[C@@H]2CCN(c3ncnc4[nH]ccc34)[C@@H]2C1)C(F)(F)F` [Example 41, 1-((3aS,7aS)-1-(7H-Pyrrolo[2,3-d]pyrimidin-4-yl)hexahydro-1H-pyrrolo[2,3-c]pyridin-6(2H)-yl)-2-(trifluoromethyl)prop-2-en-1-one], the IC50 is 0.446 µM.

Regarding `C=CC(=O)N1CC(Nc2ncnc3[nH]ccc23)CCC1(C)C` (centres unmarked) [Example 67, 1-(5-((7H-Pyrrolo[2,3-d]pyrimidin-4-yl)amino)-2,2-dimethylpiperidin-1-yl)prop-2-en-1-one], the IC50 came to 6.9 µM.

Take `C=CC(=O)N1CCC[C@@H](Nc2nc(Nc3cccnc3)nc3[nH]ccc23)C1` [Example 63, 1-[(3R)-3-{[2-(Pyridin-3-ylamino)-7H-pyrrolo[2,3-d]pyrimidin-4-yl]amino}piperidin-1-yl]prop-2-en-1-one]: the IC50 was 1.38 µM.

As for `C=CC(=O)N1CCC(Nc2cnc3[nH]cc(-c4ccc(C)nc4)c3n2)CC1` [Example 199, 1-(4-{[7-(6-methylpyridin-3-yl)-5H-pyrrolo[2,3-b]pyrazin-2-yl]amino}piperidin-1-yl)prop-2-en-1-one], the IC50 was found to be 0.735 µM.

With `C=CC(=O)N1CCC[C@@H](Nc2ncnc3[nH]cc(-c4cccnc4)c23)C1` [Example 26, 1-[(3R)-3-{[5-(pyridin-3-yl)-7H-pyrrolo[2,3-d]pyrimidin-4-yl]amino}piperidin-1-yl]prop-2-en-1-one], the IC50 stood at 0.254 µM.

For `C=CC(=O)N1CCC(Oc2cnc3[nH]cc(-c4ccnc(C)c4)c3n2)CC1` [Example 220, 1-(4-{[7-(2-methylpyridin-4-yl)-5H-pyrrolo[2,3-b]pyrazin-2-yl]oxy}piperidin-1-yl)prop-2-en-1-one], the IC50 was determined as 0.465 µM.

Still in this assay, the particulars now being: IL-15 stimulated, read-out: PBMC IL15-pSTAT5 IC50.
For `C=CC(=O)N1CCC[C@@H](Nc2ncnc3[nH]cc(-c4cncc(OC)c4)c23)C1` [Example 24, 1-[(3R)-3-{[5-(5-methoxypyridin-3-yl)-7H-pyrrolo[2,3-d]pyrimidin-4-yl]amino}piperidin-1-yl]prop-2-en-1-one], the IC50 came out at 0.32 µM.

Regarding `C=CC(=O)N1CCC(Nc2cnc3[nH]cc(-c4ccncc4F)c3n2)CC1` [Example 200, 1-(4-{[7-(3-fluoropyridin-4-yl)-5H-pyrrolo[2,3-b]pyrazin-2-yl]amino}piperidin-1-yl)prop-2-en-1-one], the IC50 turned out to be 0.819 µM.

Consider `C=CC(=O)N1CCC(Nc2cnc3[nH]cc(C(=O)NCC4(O)CC[C@@H](C)C4)c3n2)CC1` (stereo partly drawn) [Example 239, 2-[(1-acryloylpiperidin-4-yl)amino]-N-{[(3R)-1-hydroxy-3-methylcyclopentyl]methyl}-5H-pyrrolo[2,3-b]pyrazine-7-carboxamide], for which the IC50 was found to be 1.9 µM.

In the case of `C=CC(=O)N1CCC(Oc2cnc3[nH]cc(-c4cccnc4F)c3n2)CC1` [Example 217, 1-(4-{[7-(2-fluoropyridin-3-yl)-5H-pyrrolo[2,3-b]pyrazin-2-yl]oxy}piperidin-1-yl)prop-2-en-1-one], the IC50 amounted to 0.129 µM.

On to `C=CC(=O)N1CCC[C@@H](Nc2ncnc3[nH]cc(CCO)c23)C1` [Example 55, (R)-1-(3-((5-(2-Hydroxyethyl)-7H-pyrrolo[2,3-d]pyrimidin-4-yl)amino)piperidin-1-yl)prop-2-en-1-one], for which the IC50 is 0.43 µM.

Turning to `C=CC(=O)N1CCC(Nc2cnc3[nH]cc(C(=O)N[C@H]4CCC[C@H](CC#N)C4)c3n2)CC1` [Example 262, 2-[(1-acryloylpiperidin-4-yl)amino]-N-[(1S,3S)-3-(cyanomethyl)cyclohexyl]-5H-pyrrolo[2,3-b]pyrazine-7-carboxamide], the IC50 came out at 1.33 µM.

On to `C=CC(=O)N1C[C@@H]2C(Nc3cnc4[nH]cc(C(=O)NC(C)C)c4n3)[C@@H]2C1` (stereo partly drawn) [Example 189, 2-{[(1R,5S,6s)-3-acryloyl-3-azabicyclo[3.1.0]hex-6-yl]amino}-N-(propan-2-yl)-5H-pyrrolo[2,3-b]pyrazine-7-carboxamide], for which the concentration for half-maximal inhibition (IC50) was found to be 1.74 µM.

`C=CC(=O)N1CCC(Nc2cnc3[nH]cc(C(=O)N[C@@H]4CCC[C@H]4F)c3n2)CC1` [Example 237, 2-[(1-acryloylpiperidin-4-yl)amino]-N-[(1R,2R)-2-fluorocyclopentyl]-5H-pyrrolo[2,3-b]pyrazine-7-carboxamide]: the IC50 turned out to be 0.0801 µM.

Take `C=CC(=O)N1C[C@H](Nc2ncnc3[nH]cc(C(N)=O)c23)CC[C@@H]1C` [Example 164, 4-{[(3R,6S)-1-Acryloyl-6-methylpiperidin-3-yl]amino}-7H-pyrrolo[2,3-d]pyrimidine-5-carboxamide]: the IC50 was found to be 1.65 µM.

In the case of `C=CC(=O)N1CCC(Nc2cnc3[nH]cc(C(=O)NCC4(O)CCCC[C@H]4F)c3n2)CC1` (stereo partly drawn) [Example 250, 2-[(1-acryloylpiperidin-4-yl)amino]-N-{[(2R)-2-fluoro-1-hydroxycyclohexyl]methyl}-5H-pyrrolo[2,3-b]pyrazine-7-carboxamide], the 50% inhibitory concentration (IC50) turned out to be 4.12 µM.

With `C=CC(=O)N1CCC(Oc2cnc3[nH]cc(-c4ccc(F)nc4)c3n2)CC1` [Example 226, 1-(4-{[7-(6-fluoropyridin-3-yl)-5H-pyrrolo[2,3-b]pyrazin-2-yl]oxy}piperidin-1-yl)prop-2-en-1-one], the IC50 was 0.699 µM.

As to `C=CC(=O)N1CCC(Nc2cnc3[nH]cc(C(=O)N4CCCC4)c3n2)CC1` [Example 287, 1-(4-{[7-(pyrrolidin-1-ylcarbonyl)-5H-pyrrolo[2,3-b]pyrazin-2-yl]amino}piperidin-1-yl)prop-2-en-1-one], the IC50 turned out to be 7.37 µM.

Take `C=CC(=O)N1CCC(Nc2cnc3[nH]cc(C(=O)NCCCCCCCCC#N)c3n2)CC1` [Example 260, 2-[(1-acryloylpiperidin-4-yl)amino]-N-(8-cyanooctyl)-5H-pyrrolo[2,3-b]pyrazine-7-carboxamide]: the half-maximal inhibitory concentration (IC50) came to 0.575 µM.

In the case of `C=CC(=O)N1C[C@@H](C)N(c2cnc3[nH]cc(C(=O)NC(C)C)c3n2)[C@@H](C)C1` [Example 328, 2-[(2R,6S)-4-acryloyl-2,6-dimethylpiperazin-1-yl]-N-(propan-2-yl)-5H-pyrrolo[2,3-b]pyrazine-7-carboxamide], the IC50 was 0.891 µM.

Consider `C=CC(=O)N1CCC[C@@H](Nc2ncnc3[nH]cc(-c4ccc(C(=O)NC(C)C)cc4)c23)C1` [Example 29, 4-(4-{[(3R)-1-acryloylpiperidin-3-yl]amino}-7H-pyrrolo[2,3-d]pyrimidin-5-yl)-N-(propan-2-yl)benzamide], for which the IC50 turned out to be 0.464 µM.

For `C=CC(=O)N1CCN(c2cnc3[nH]cc(C(=O)NC(C)C)c3n2)[C@@H](CC)C1` [Example 325, 2-[(2S)-4-acryloyl-2-ethylpiperazin-1-yl]-N-(propan-2-yl)-5H-pyrrolo[2,3-b]pyrazine-7-carboxamide], the IC50 amounted to 1.56 µM.

For the molecule `C=CC(=O)N1CCC(Nc2cnc3[nH]cc(C(=O)N4CCC4)c3n2)CC1` [Example 284, 1-(4-{[7-(azetidin-1-ylcarbonyl)-5H-pyrrolo[2,3-b]pyrazin-2-yl]amino}piperidin-1-yl)prop-2-en-1-one], the IC50 came out at 2.79 µM.

Turning to `C=CC(=O)N1CCC(Nc2cnc3[nH]cc(C(=O)NC(CC)C4(O)CCC4)c3n2)CC1` (centres unmarked) [Example 251b, 2-[(1-acryloylpiperidin-4-yl)amino]-N-[1-(1-hydroxycyclobutyl)propyl]-5H-pyrrolo[2,3-b]pyrazine-7-carboxamide], the IC50 came out at 1.51 µM.

With `C=CC(=O)N1C[C@H](Nc2ncnc3[nH]ccc23)C[C@@H](OC)C1` [Example 77, 1-[(3R,5R)-3-Methoxy-5-(7H-pyrrolo[2,3-d]pyrimidin-4-ylamino)piperidin-1-yl]prop-2-en-1-one], the IC50 is 3.97 µM.

`C=CC(=O)N1CCC(Nc2cnc3[nH]cc(C(=O)NCC4(O)CCC(C)C4)c3n2)CC1` (centres unmarked) [Example 235, 2-[(1-acryloylpiperidin-4-yl)amino]-N-[(1-hydroxy-3-methylcyclopentyl)methyl]-5H-pyrrolo[2,3-b]pyrazine-7-carboxamide]: the IC50 stood at 1.7 µM.

`C=CC(=O)N1CCC(Nc2cnc3[nH]cc(C(=O)NCC4(O)CCC4)c3n2)CC1` [Example 231, 2-[(1-acryloylpiperidin-4-yl)amino]-N-[(1-hydroxycyclobutyl)methyl]-5H-pyrrolo[2,3-b]pyrazine-7-carboxamide]: the IC50 is 3.62 µM.

Regarding `C=CC(=O)N1CCC(Oc2cnc3[nH]cc(-c4cncc(F)c4)c3n2)CC1` [Example 213, 1-(4-{[7-(5-fluoropyridin-3-yl)-5H-pyrrolo[2,3-b]pyrazin-2-yl]oxy}piperidin-1-yl)prop-2-en-1-one], the half-inhibitory concentration (IC50) was determined as 0.318 µM.
